Assay results: patent US8802661B2, “C-28 amides of modified C-3 betulinic acid derivatives as HIV maturation inhibitors” (priority 2010, dated 2014)
Read-outs that look alike come from different tables or passages of the source.

System: recombinant NL4-3 virus (Renilla luciferase in nef, Gag P373S)
Assay: HIV Cell Culture Assay (luciferase reporter virus in MT-2 cells)
Assay type: cell-based
In short: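 First, reporter virus was generated in 293T cells and titered on MT-2 cells. Next, MT-2 cells were infected in the presence of serial compound dilutions for 4-5 days. Finally, cells were lysed and luciferase activity was measured to quantify inhibition.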

Row | Compound | EC50 (NL43, read-out: EC50 Group) [µM] | EC50 (NL43) [µM]
1 | C=C(C)[C@@H]1CC[C@]2(C(=O)NCCN(CC(=O)O)Cc3ccccc3)CC[C@]3(C)[C@H](CC[C@@H]4[C@@]5(C)CC=C(c6ccc(C(=O)O)cc6)C(C)(C)[C@@H]5CC[C@]43C)[C@@H]12 [Example 107, 4-((1R,3aS,5aR,5bR,7aR,11aS,11bR,13aR,13bR)-3a-(2-(benzyl(carboxymethyl)amino)ethylcarbamoyl)-5a,5b,8,8,11a-pentamethyl-1-(prop-1-en-2-yl)-2,3,3a,4,5,5a,5b,6,7,7a,8,11,11a,11b,12,13,13a,13b-octadecahydro-1H-cyclopenta[a]chrysen-9-yl)benzoic acid] | < 0.1 | 
2 | C=C(C)[C@@H]1CC[C@]2(C(=O)NCCN3CCNC(=O)C3)CC[C@]3(C)[C@H](CC[C@@H]4[C@@]5(C)CC=C(c6ccc(C(=O)O)cc6)C(C)(C)[C@@H]5CC[C@]43C)[C@@H]12 [Example 108, 4-((1R,3aS,5aR,5bR,7aR,11aS,11bR,13aR,13bR)-5a,5b,8,8,11a-pentamethyl-3a-(2-(3-oxopiperazin-1-yl)ethylcarbamoyl)-1-(prop-1-en-2-yl)-2,3,3a,4,5,5a,5b,6,7,7a,8,11,11a,11b,12,13,13a,13b-octadecahydro-1H-cyclopenta[a]chrysen-9-yl)benzoic acid] | < 0.1 | 
3 | C=C(C)[C@@H]1CC[C@]2(C(=O)NCCCN3CCS(=O)(=O)CC3)CC[C@]3(C)[C@H](CC[C@@H]4[C@@]5(C)CC=C(c6ccc(C(=O)O)cc6F)C(C)(C)[C@@H]5CC[C@]43C)[C@@H]12 [Example 109, 4-((1R,3aS,5aR,5bR,7aR,11aS,11bR,13aR,13bR)-3a-((3-(1,1-dioxido-4-thiomorpholinyl)propyl)carbamoyl)-1-isopropenyl-5a,5b,8,8,11a-pentamethyl-2,3,3a,4,5,5a,5b,6,7,7a,8,11,11a,11b,12,13,13a,13b-octadecahydro-1H-cyclopenta[a]chrysen-9-yl)-3-fluorobenzoic acid] | < 0.1 | 
4 | C=C(C)[C@@H]1CC[C@]2(C(=O)NCCNc3ccccc3)CC[C@]3(C)[C@H](CC[C@@H]4[C@@]5(C)CC=C(c6ccc(C(=O)O)cc6)C(C)(C)[C@@H]5CC[C@]43C)[C@@H]12 [Example 110, 4-((1R,3aS,5aR,5bR,7aR,11aS,11bR,13aR,13bR)-5a,5b,8,8,11a-pentamethyl-3a-(2-(phenylamino)ethylcarbamoyl)-1-(prop-1-en-2-yl)-2,3,3a,4,5,5a,5b,6,7,7a,8,11,11a,11b,12,13,13a,13b-octadecahydro-1H-cyclopenta[a]chrysen-9-yl)benzoic acid] | < 0.1 | 
5 | C=C(C)[C@@H]1CC[C@]2(C(=O)NCCN(CC(=O)O)c3ccccc3)CC[C@]3(C)[C@H](CC[C@@H]4[C@@]5(C)CC=C(c6ccc(C(=O)O)cc6)C(C)(C)[C@@H]5CC[C@]43C)[C@@H]12 [Example 111, 4-((1R,3aS,5aR,5bR,7aR,11aS,11bR,13aR,13bR)-3a-(2-((carboxymethyl)(phenyl)amino)ethylcarbamoyl)-5a,5b,8,8,11a-pentamethyl-1-(prop-1-en-2-yl)-2,3,3a,4,5,5a,5b,6,7,7a,8,11,11a,11b,12,13,13a,13b-octadecahydro-1H-cyclopenta[a]chrysen-9-yl)benzoic acid] | < 0.1 | 
6 | C=C(C)[C@@H]1CC[C@]2(C(=O)NCCCN3CCS(=O)(=O)CC3)CC[C@]3(C)[C@H](CC[C@@H]4[C@@]5(C)CC=C(c6ccc(C(=O)O)c(C(=O)O)c6)C(C)(C)[C@@H]5CC[C@]43C)[C@@H]12 [Example 112, 4-((1R,3aS,5aR,5bR,7aR,11aS,11bR,13aR,13bR)-3a-((3-(1,1-dioxido-4-thiomorpholinyl)propyl)carbamoyl)-1-isopropenyl-5a,5b,8,8,11a-pentamethyl-2,3,3a,4,5,5a,5b,6,7,7a,8,11,11a,11b,12,13,13a,13b-octadecahydro-1H-cyclopenta[a]chrysen-9-yl)phthalic acid] | < 0.1 | 
7 | C=C(C)[C@@H]1CC[C@]2(C(=O)NCCN(C)C)CC[C@]3(C)[C@H](CC[C@@H]4[C@@]5(C)CC=C(c6ccc(C(=O)O)c(C(=O)O)c6)C(C)(C)[C@@H]5CC[C@]43C)[C@@H]12 [Example 113, 4-((1R,3aS,5aR,5bR,7aR,11aS,11bR,13aR,13bR)-3a-(2-(dimethylamino)ethylcarbamoyl)-5a,5b,8,8,11a-pentamethyl-1-(prop-1-en-2-yl)-2,3,3a,4,5,5a,5b,6,7,7a,8,11,11a,11b,12,13,13a,13b-octadecahydro-1H-cyclopenta[a]chrysen-9-yl)phthalic acid] | > 0.1 | 
8 | C=C(C)[C@@H]1CC[C@]2(C(=O)NCCNc3ccc(C(=O)O)cc3)CC[C@]3(C)[C@H](CC[C@@H]4[C@@]5(C)CC=C(c6ccc(C(=O)O)cc6)C(C)(C)[C@@H]5CC[C@]43C)[C@@H]12 [Example 114, 4-(2-((1R,3aS,5aR,5bR,7aR,11aS,11bR,13aR,13bR)-9-(4-carboxyphenyl)-5a,5b,8,8,11a-pentamethyl-1-(prop-1-en-2-yl)-2,3,3a,4,5,5a,5b,6,7,7a,8,11,11a,11b,12,13,13a,13b-octadecahydro-1H-cyclopenta[a]chrysene-3a-carboxamido)ethylamino)benzoic acid] |  | 0.0176
9 | C=C(C)[C@@H]1CC[C@]2(C(=O)NCCN(C)CCOC(=O)CCC(=O)O)CC[C@]3(C)[C@H](CC[C@@H]4[C@@]5(C)CC=C(c6ccc(C(=O)O)cc6)C(C)(C)[C@@H]5CC[C@]43C)[C@@H]12 [Example 115, 4-((1R,3aS,5aR,5bR,7aR,11aS,11bR,13aR,13bR)-3a-(2-((2-(3-carboxypropanoyloxy)ethyl)(methyl)amino)ethylcarbamoyl)-5a,5b,8,8,11a-pentamethyl-1-(prop-1-en-2-yl)-2,3,3a,4,5,5a,5b,6,7,7a,8,11,11a,11b,12,13,13a,13b-octadecahydro-1H-cyclopenta[a]chrysen-9-yl)benzoic acid] | < 0.1 | 
10 | C=C(C)[C@@H]1CC[C@]2(C(=O)NCCN3CCS(=O)(=O)CC3)CC[C@]3(C)[C@H](CC[C@@H]4[C@@]5(C)CC=C(c6ccc(C(=O)O)c(F)c6)C(C)(C)[C@@H]5CC[C@]43C)[C@@H]12 [Example 116, 4-((1R,3aS,5aR,5bR,7aR,11aS,11bR,13aR,13bR)-3a-((2-(1,1-dioxido-4-thiomorpholinyl)ethyl)carbamoyl)-1-isopropenyl-5a,5b,8,8,11a-pentamethyl-2,3,3a,4,5,5a,5b,6,7,7a,8,11,11a,11b,12,13,13a,13b-octadecahydro-1H-cyclopenta[a]chrysen-9-yl)-2-fluorobenzoic acid] | < 0.1 | 
11 | C=C(C)[C@@H]1CC[C@]2(C(=O)NCCN3CCC(F)(F)CC3)CC[C@]3(C)[C@H](CC[C@@H]4[C@@]5(C)CC=C(c6ccc(C(=O)O)c(F)c6)C(C)(C)[C@@H]5CC[C@]43C)[C@@H]12 [Example 117, 4-((1R,3aS,5aR,5bR,7aR,11aS,11bR,13aR,13bR)-3a-(2-(4,4-difluoropiperidin-1-yl)ethylcarbamoyl)-5a,5b,8,8,11a-pentamethyl-1-(prop-1-en-2-yl)-2,3,3a,4,5,5a,5b,6,7,7a,8,11,11a,11b,12,13,13a,13b-octadecahydro-1H-cyclopenta[a]chrysen-9-yl)-2-fluorobenzoic acid] | < 0.1 | 
12 | C=C(C)[C@@H]1CC[C@]2(C(=O)NCCN3CCC(F)(F)CC3)CC[C@]3(C)[C@H](CC[C@@H]4[C@@]5(C)CC=C(c6ccc(C(=O)O)cc6)C(C)(C)[C@@H]5CC[C@]43C)[C@@H]12 [Example 118, 4-((1R,3aS,5aR,5bR,7aR,11aS,11bR,13aR,13bR)-3a-(2-(4,4-difluoropiperidin-1-yl)ethylcarbamoyl)-5a,5b,8,8,11a-pentamethyl-1-(prop-1-en-2-yl)-2,3,3a,4,5,5a,5b,6,7,7a,8,11,11a,11b,12,13,13a,13b-octadecahydro-1H-cyclopenta[a]chrysen-9-yl)benzoic acid] | < 0.1 | 
13 | C=C(C)[C@@H]1CC[C@]2(C(=O)NCCN3CCC(F)(F)CC3)CC[C@]3(C)[C@H](CC[C@@H]4[C@@]5(C)CC=C(c6ccc(C(=O)O)cc6F)C(C)(C)[C@@H]5CC[C@]43C)[C@@H]12 [Example 119, 4-((1R,3aS,5aR,5bR,7aR,11aS,11bR,13aR,13bR)-3a-(2-(4,4-difluoropiperidin-1-yl)ethylcarbamoyl)-5a,5b,8,8,11a-pentamethyl-1-(prop-1-en-2-yl)-2,3,3a,4,5,5a,5b,6,7,7a,8,11,11a,11b,12,13,13a,13b-octadecahydro-1H-cyclopenta[a]chrysen-9-yl)-3-fluorobenzoic acid] | < 0.1 | 
14 | C=C(C)[C@@H]1CC[C@]2(C(=O)NCCN3CCS(=O)(=O)CC3)CC[C@]3(C)[C@H](CC[C@@H]4[C@@]5(C)CC=C(c6ccc(C(=O)O)cc6F)C(C)(C)[C@@H]5CC[C@]43C)[C@@H]12 [Example 120, 4-((1R,3aS,5aR,5bR,7aR,11aS,11bR,13aR,13bR)-3a-((2-(1,1-dioxido-4-thiomorpholinyl)ethyl)carbamoyl)-1-isopropenyl-5a,5b,8,8,11a-pentamethyl-2,3,3a,4,5,5a,5b,6,7,7a,8,11,11a,11b,12,13,13a,13b-octadecahydro-1H-cyclopenta[a]chrysen-9-yl)-3-fluorobenzoic acid] | < 0.1 | 
15 | C=C(C)[C@@H]1CC[C@]2(C(=O)NCCN3CCS(=O)(=O)CC3)CC[C@]3(C)[C@H](CC[C@@H]4[C@@]5(C)CC=C(c6cc(F)c(C(=O)O)c(F)c6)C(C)(C)[C@@H]5CC[C@]43C)[C@@H]12 [Example 121, 4-((1R,3aS,5aR,5bR,7aR,11aS,11bR,13aR,13bR)-3a-((2-(1,1-dioxido-4-thiomorpholinyl)ethyl)carbamoyl)-1-isopropenyl-5a,5b,8,8,11a-pentamethyl-2,3,3a,4,5,5a,5b,6,7,7a,8,11,11a,11b,12,13,13a,13b-octadecahydro-1H-cyclopenta[a]chrysen-9-yl)-2,6-difluorobenzoic acid] | < 0.1 | 
